From patent US20200024278A1, “COMPOSITION COMPRISING ANTIBIOTIC COMPOUND AND AN HETEROCYCLIC COMPOUND AND THEIR USE IN PREVENTING OR TREATING BACTERIAL INFECTIONS” (MUTABILIS, priority 2016, published 2020)
Like-named read-outs stand apart in the source and are kept apart here.

Legend:
[1] = tested on: ABA UFR161; assay: MIC, broth microdilution (CLSI), substance alone or ATB combined with compound at 4 or 8 μg/mL; format: cell-based, A. baumannii; conditions: substance alone
In short: (§1)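 CLSI M7-A7 broth microdilution. ca-MHB, 5·10^5 CFU/mL log-phase cells, 16-20 h, 35° C, ambient air. Fosfomycin wells + 25 μg/ml glucose-6-phosphate. Visual MIC read.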

[2] = tested on: ABA UFR157; assay: as above; format: cell-based, A. baumannii; conditions: substance alone
In short: as §1

[3] = tested on: ABA UFR152; assay: as above; format: cell-based, A. baumannii; conditions: substance alone
In short: as §1

[4] = tested on: ABA UFR158; assay: as above; format: cell-based, A. baumannii; conditions: substance alone
In short: as §1

[5] = tested on: ABA UFR154; assay: as above; format: cell-based, A. baumannii; conditions: substance alone
In short: as §1

[6] = tested on: ABA UFR156; assay: as above; format: cell-based, A. baumannii; conditions: substance alone
In short: as §1

[7] = tested on: ABA UFR155; assay: as above; format: cell-based, A. baumannii; conditions: substance alone
In short: as §1

[8] = tested on: ABA UFR159; assay: as above; format: cell-based, A. baumannii; conditions: substance alone
In short: as §1

[9] = tested on: ABA 19606; assay: as above; format: cell-based, A. baumannii; conditions: substance alone
In short: as §1

[10] = tested on: ABA UFR153; assay: as above; format: cell-based, A. baumannii; conditions: substance alone
In short: as §1

[11] = tested on: ABA 107292; assay: as above; format: cell-based, A. baumannii; conditions: substance alone
In short: as §1

[12] = tested on: ECO 190317; assay: Fractional Inhibitory Concentration Index, checkerboard assay; format: cell-based, E. coli
Experimental: (§2) Method 2: Determination of the Fractional Inhibitory Concentration Index
(§3) Serial 2-fold dilutions of each antibiotic tested were prepared in ca-MHB and mixed in each well of a 96-well microtiter plate so that each row (and column) contained a fixed amount of one agent and increasing amounts of the second agent. The range of drug concentrations used in the checkerboard analysis was such that the dilution range encompassed the MIC for each drug used in the analysis. Broth microdilution plates were inoculated with each strain (Table 3) to yield 5.10^5 CFU/mL in a 100 μL final volume and incubated for 18 h at 35° C. in ambient air. Assays including Fosfomycin were supplemented with 25 μg/ml of Glucose-6-phosphate. MICs were determined after overnight incubation, and the fractional inhibitory concentration (FIC) index was calculated for each well. The FIC index (FICI) was calculated for each combination according to the equation FICI=FICa+FICb=(MIC of drug A in combination/MIC of drug A alone)+(MIC of drug B in combination/MIC of drug B alone). The FICI was interpreted as follows: synergy, FICI […]; indifference, 0.5<FIC<4; and antagonism, FICI>4. The checkerboard assays were performed in duplicate.

[13] = tested on: KPN UFR68; assay: as above; format: cell-based, K. pneumoniae
Experimental: as §2, §3

[14] = tested on: ECL P99; assay: as above; format: cell-based, E. cloacae
Experimental: as §2, §3

[15] = tested on: PAE UFR90; assay: as above; format: cell-based, P. aeruginosa
Experimental: as §2, §3

[16] = tested on: PAE UFR48; assay: as above; format: cell-based, P. aeruginosa
Experimental: as §2, §3

[17] = Acinetobacter baumannii, read-out: MIC

Work on `O=C1N2CC(n3cccn3)=C[C@H](C2)N1OS(=O)(=O)[O-].[Na+]` [Example 15, sodium [(5R)-7-oxo-3-pyrazol-1-yl-1,6-diazabicyclo[3.2.1]oct-3-en-6-yl] sulfate] yielded an MIC [1, 17] of over 32 µg/mL, an MIC [2, 17] of over 32 µg/mL and an MIC [3, 17] of over 32 µg/mL. It also gave an MIC [4, 17] of over 32 µg/mL, an MIC [5, 17] of over 32 µg/mL and an MIC [6, 17] of over 32 µg/mL. For the same compound, the MIC [7, 17] was over 32 µg/mL, the MIC [8, 17] was over 32 µg/mL and the MIC [9, 17] was over 32 µg/mL. The MIC [10, 17] was over 32 µg/mL and the MIC [11, 17] was over 32 µg/mL.

`NC[C@@H]1CC(=NOCC(N)=O)[C@@H]2CN1C(=O)N2OS(=O)(=O)[O-].O=C(O)C(F)(F)F.[Na+]` [Example 4, 2,2,2-trifluroacetate and sodium [(2S,5S)-4-(2-amino-2-oxo-ethoxy)imino-2-(azaniumylmethyl)-7-oxo-1,6-diazabicyclo[3.2.1]octan-6-yl] sulfate] gave an FIC index min ([12]; compound +ATM) of 0.57, an FIC index min ([12]; compound +FEP) of 0.31 and an FIC index min ([12]; compound +FOS) of 0.53. For the same compound, the FIC index min ([12]; compound +MEM) was 0.87, the FIC index min ([12]; compound +PIP) was at most 0.74 and the FIC index min ([13]; compound +ATM) was at most 0.023. The FIC index min ([13]; compound +FEP) was at most 0.006, the FIC index min ([13]; compound +FOS) was at most 0.035 and the FIC index min ([13]; compound +MEM) was at most 0.023. The FIC index min ([13]; compound +PIP) was at most 0.063, the FIC index min ([14]; compound +ATM) was 0.63 and the FIC index min ([14]; compound +FEP) was 0.44. The FIC index min ([14]; compound +FOS) was at most 0.25, the FIC index min ([14]; compound +MEM) was 0.44 and the FIC index min ([14]; compound +PIP) was 0.56. For the same compound, the FIC index min ([15]; compound +ATM) was 0.53, the FIC index min ([15]; compound +FEP) was 0.63 and the FIC index min ([15]; compound +FOS) was 0.63. For the same compound, the FIC index min ([15]; compound +MEM) was 1.0, the FIC index min ([15]; compound +PIP) was 0.75 and the FIC index min ([16]; compound +ATM) was 0.50. It also gave an FIC index min ([16]; compound +FEP) of 0.63, an FIC index min ([16]; compound +FOS) of 1.20 and an FIC index min ([16]; compound +MEM) of 0.63. It also gave an FIC index min ([16]; compound +PIP) of 0.44.

Compound `O=C1N2CC(n3ccnn3)=CC(C2)N1OS(=O)(=O)[O-].[Na+]` (centres unmarked) [Example 12, sodium [7-oxo-3-(triazol-1-yl)-1,6-diazabicyclo[3.2.1]oct-3-en-6-yl] sulfate] has an MIC [1] of over 32 µg/mL, an MIC [2] of over 32 µg/mL and an MIC [3] of over 32 µg/mL. The MIC [4] was over 32 µg/mL, the MIC [5] was over 32 µg/mL and the MIC [6] was over 32 µg/mL. The MIC [7] was over 32 µg/mL, the MIC [8] was over 32 µg/mL and the MIC [9] was 32 µg/mL. It also gave an MIC [10] of over 32 µg/mL and an MIC [11] of over 32 µg/mL.
